Source: patent publication US11845752B2, “Substituted imidazo[1,5-a]pyrazines for the treatment of hepatitis B” (ALIGOS THERAPEUTICS, INC., priority 2020, dated 2023)
Read-outs that look alike come from different tables or passages of the source.

Test system: HBV
Test: HBV-DNA antiviral assay using HepG2.117 cells (intracellular HBV DNA by qPCR)
Format: cell-based, HBV genotype D
Conditions: HBV DNA inhibition, 3 days incubation, read-out: EC50
Summary of the method: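 Read-outs: cell-lysate HBV DNA copies by qPCR (interpolated from gBlock standard) and parallel cellular ATP luminescence for CC50, both normalised to 2% DMSO controls and fitted by non-linear regression. HepG2.117 Tet-off genotype D HBV cells, induced by doxycycline removal, exposed 3 days to 4-fold serial dilutions.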

[1] = Hepatitis B virus, HepG2.117, 72 h

SMILES | EC50 [µM] | EC50 [1] [µM]
CC1Cn2c(c(C(=O)NCc3ccccc3-c3cc(N)cnn3)n(-c3ccc(OC4CC4)cc3)c2=O)CN1C(=O)c1ccc(Br)c(Cl)c1 (single isomer, unassigned) [Compound 42b] | 0.05 to 0.5 | 
CC1Cn2c(c(C(=O)NCc3ccccc3-c3cc(N)cnn3)n(-c3ccc(OC4CC4)cc3)c2=O)CN1C(=O)c1ccc(Br)c(C(F)(F)F)c1 (single isomer, unassigned) [Compound 43a] | 0.5 to 5 | 
CC1Cn2c(c(C(=O)NCc3ccccc3-c3cc(N)cnn3)n(-c3ccc(OC4CC4)cc3)c2=O)CN1C(=O)c1ccc(Br)c(C(F)(F)F)c1 (single isomer, unassigned) [Compound 43b] | 0.05 to 0.5 | 
CC1Cn2c(c(C(=O)NCc3ccccc3-c3c[nH]cn3)n(-c3ccc(OC4CC4)cc3)c2=O)CN1C(=O)c1ccc(Br)c(Cl)c1 (single isomer, unassigned) [Compound 44a] |  | 0.05 to 0.5
CC1Cn2c(c(C(=O)NCc3ccccc3-c3c[nH]cn3)n(-c3ccc(OC4CC4)cc3)c2=O)CN1C(=O)c1ccc(Br)c(Cl)c1 (single isomer, unassigned) [Compound 44b] | < 0.05 | 
Cc1nnc(-c2cccc(F)c2CNC(=O)c2c3n(c(=O)n2-c2ccc(OC4CC4)cc2)CC(C)N(C(=O)c2ccc(Br)c(Cl)c2)C3)o1 (single isomer, unassigned) [Compound 45a] |  | 0.05 to 0.5
Cc1nnc(-c2cccc(F)c2CNC(=O)c2c3n(c(=O)n2-c2ccc(OC4CC4)cc2)CC(C)N(C(=O)c2ccc(Br)c(Cl)c2)C3)o1 (single isomer, unassigned) [Compound 45b] | 0.05 to 0.5 | 
Cc1nc2cc(-n3c(C(=O)NCc4ccccc4-c4ccncn4)c4n(c3=O)CC(C)N(C(=O)c3ccc(Br)c(Cl)c3)C4)ccc2o1 (single isomer, unassigned) [Compound 46a] |  | 0.05 to 0.5
Cc1nc2cc(-n3c(C(=O)NCc4ccccc4-c4ccncn4)c4n(c3=O)CC(C)N(C(=O)c3ccc(Br)c(Cl)c3)C4)ccc2o1 (single isomer, unassigned) [Compound 46b] | < 0.05 | 
Cc1nnc(-c2ccccc2CNC(=O)c2c3n(c(=O)n2-c2ccc(OC4CC4)cc2)CC(C)N(C(=O)c2ccc(Br)c(C(F)(F)F)c2)C3)o1 (single isomer, unassigned) [Compound 47a] |  | < 0.05
Cc1nc2cc(-n3c(C(=O)NCc4ccccc4-c4ccncn4)c4n(c3=O)CC(C)N(C(=O)c3ccc(Br)c(C(F)(F)F)c3)C4)ccc2o1 (single isomer, unassigned) [Compound 48a] |  | 0.05 to 0.5
Cc1nc2cc(-n3c(C(=O)NCc4ccccc4-c4ccncn4)c4n(c3=O)CC(C)N(C(=O)c3ccc(Br)c(C(F)(F)F)c3)C4)ccc2o1 (single isomer, unassigned) [Compound 48b] | < 0.05 | 
CC1Cn2c(c(C(=O)NCc3c(F)cccc3-c3cccnn3)n(-c3ccc(OC4CC4)cc3)c2=O)CN1C(=O)c1ccc(Br)c(Cl)c1 (single isomer, unassigned) [Compound 49a] |  | 0.05 to 0.5
CC1Cn2c(c(C(=O)NCc3c(F)cccc3-c3cccnn3)n(-c3ccc(OC4CC4)cc3)c2=O)CN1C(=O)c1ccc(Br)c(Cl)c1 (single isomer, unassigned) [Compound 49b] | 0.05 to 0.5 | 
CC1Cn2c(c(C(=O)NCc3c(F)cccc3-c3cccnn3)n(-c3ccc(OC4CC4)cc3)c2=O)CN1C(=O)c1ccc(Br)c(C(F)(F)F)c1 (single isomer, unassigned) [Compound 50a] |  | 0.05 to 0.5
CC1Cn2c(c(C(=O)NCc3c(F)cccc3-c3cccnn3)n(-c3ccc(OC4CC4)cc3)c2=O)CN1C(=O)c1ccc(Br)c(C(F)(F)F)c1 (single isomer, unassigned) [Compound 50b] | < 0.05 | 
CC1Cn2c(c(C(=O)NCc3ccccc3-c3cc[nH]n3)n(-c3ccc(OC4CC4)cc3)c2=O)CN1C(=O)c1ccc(Br)c(Cl)c1 (single isomer, unassigned) [Compound 51a] |  | 0.05 to 0.5
CC1Cn2c(c(C(=O)NCc3ccccc3-c3cc[nH]n3)n(-c3ccc(OC4CC4)cc3)c2=O)CN1C(=O)c1ccc(Br)c(Cl)c1 (single isomer, unassigned) [Compound 51b] | < 0.05 | 
Cc1nnc(-c2ccccc2CNC(=O)c2c3n(c(=O)n2-c2ccc4oc(C)nc4c2)CC(C)N(C(=O)c2ccc(Br)c(Cl)c2)C3)o1 (single isomer, unassigned) [Compound 53a] |  | 0.05 to 0.5
Cc1nnc(-c2ccccc2CNC(=O)c2c3n(c(=O)n2-c2ccc4oc(C)nc4c2)CC(C)N(C(=O)c2ccc(Br)c(Cl)c2)C3)o1 (single isomer, unassigned) [Compound 53b] | 0.05 to 0.5 | 

SMILES | EC50 [µM] | EC50 [1] [µM]
Cc1nnc(-c2ccccc2CNC(=O)c2c3n(c(=O)n2-c2ccc4oc(C)nc4c2)CC(C)N(C(=O)c2ccc(Br)c(C(F)(F)F)c2)C3)o1 (single isomer, unassigned) [Compound 54a] |  | < 0.05
Cc1nnc(-c2ccccc2CNC(=O)c2c3n(c(=O)n2-c2ccc4oc(C)nc4c2)CC(C)N(C(=O)c2ccc(Br)c(C(F)(F)F)c2)C3)o1 (single isomer, unassigned) [Compound 54b] | 0.05 to 0.5 | 
CC1Cn2c(c(C(=O)NCc3ccccc3-c3cccnn3)n(-c3ccc(OC[C@@H](C)O)cc3)c2=O)CN1C(=O)c1ccc(Br)c(C(F)(F)F)c1 (single isomer, unassigned) [Compound 56a] | 0.5 to 5 | 
CC1Cn2c(c(C(=O)NCc3ccccc3-c3cccnn3)n(-c3ccc(OC[C@@H](C)O)cc3)c2=O)CN1C(=O)c1ccc(Br)c(C(F)(F)F)c1 (single isomer, unassigned) [Compound 56b] | 0.05 to 0.5 | 
CC1Cn2c(c(C(=O)NCc3ccccc3-c3cccnn3)n(-c3ccc(OC[C@H](C)O)cc3)c2=O)CN1C(=O)c1ccc(Br)c(C(F)(F)F)c1 (single isomer, unassigned) [Compound 57a] |  | 0.05 to 0.5
CC1Cn2c(c(C(=O)NCc3ccccc3-c3ncccn3)n(-c3ccc(OC4CC4)cc3)c2=O)CN1C(=O)c1ccc(Br)c(C(F)(F)F)c1 (single isomer, unassigned) [Compound 59a] |  | < 0.05
CC1Cn2c(c(C(=O)NCc3ccccc3-c3ncccn3)n(-c3ccc(OC4CC4)cc3)c2=O)CN1C(=O)c1ccc(Br)c(C(F)(F)F)c1 (single isomer, unassigned) [Compound 59b] | < 0.05 | 
CC1Cn2c(c(C(=O)NCc3ccccc3-c3ccccn3)n(-c3ccc(OC[C@@H](C)O)cc3)c2=O)CN1C(=O)c1ccc(Br)c(C(F)(F)F)c1 (single isomer, unassigned) [Compound 60a] |  | 0.05 to 0.5
CC1Cn2c(c(C(=O)NCc3ccccc3-c3ccncn3)n(-c3ccc(OC[C@@H](O)C(F)(F)F)cc3)c2=O)CN1C(=O)c1ccc(Br)c(C(F)(F)F)c1 (single isomer, unassigned) [Compound 62a] |  | < 0.05
CC1Cn2c(c(C(=O)NCc3ccccc3-c3ncccn3)n(-c3ccc(OC[C@@H](C)O)cc3)c2=O)CN1C(=O)c1ccc(Br)c(C(F)(F)F)c1 (single isomer, unassigned) [Compound 64a] |  | < 0.05
CC1Cn2c(c(C(=O)NCc3ccccc3-c3ncccn3)n(-c3ccc(OC[C@H](C)O)cc3)c2=O)CN1C(=O)c1ccc(Br)c(C(F)(F)F)c1 (single isomer, unassigned) [Compound 65a] |  | < 0.05
CC1Cn2c(c(C(=O)NCc3ccccc3-c3ccccn3)n(-c3ccc(OC[C@@H](O)C(F)(F)F)cc3)c2=O)CN1C(=O)c1ccc(Br)c(C(F)(F)F)c1 (single isomer, unassigned) [Compound 68a] |  | < 0.05
CC1Cn2c(c(C(=O)NCc3ccccc3-c3ccccn3)n(-c3ccc(OC[C@H](O)C(F)(F)F)cc3)c2=O)CN1C(=O)c1ccc(Br)c(C(F)(F)F)c1 (single isomer, unassigned) [Compound 69a] |  | < 0.05
CCC(=O)COc1ccc(-n2c(C(=O)NCc3ccccc3-c3ncccn3)c3n(c2=O)CC(C)N(C(=O)c2ccc(Br)c(C(F)(F)F)c2)C3)cc1 (single isomer, unassigned) [Compound 70a] |  | 0.05 to 0.5
CCC(=O)COc1ccc(-n2c(C(=O)NCc3ccccc3-c3ncccn3)c3n(c2=O)CC(C)N(C(=O)c2ccc(Br)c(C(F)(F)F)c2)C3)cc1 (single isomer, unassigned) [Compound 70b] | < 0.05 | 
CC1Cn2c(c(C(=O)NCc3ccccc3-c3ccncn3)n(-c3ccc(N4CC5(CN(C)C5)C4)cc3)c2=O)CN1C(=O)c1ccc(Br)c(C(F)(F)F)c1 (single isomer, unassigned) [Compound 73a, (6R*)-7-[4-bromo-3-(trifluoromethyl)benzoyl]-6-methyl-2-(4-{6-methyl-2,6-diazaspiro[3.3]heptan-2-yl}phenyl)-3-oxo-N-{[2-(pyrimidin-4-yl)phenyl]methyl}-5H,6H,8H-imidazo[1,5-a]pyrazine-1-carboxamide] | 0.5 to 5 | 
CC1Cn2c(c(C(=O)NCc3ccccc3-c3ccncn3)n(-c3ccc(N4CC5(CN(C)C5)C4)cc3)c2=O)CN1C(=O)c1ccc(Br)c(C(F)(F)F)c1 (single isomer, unassigned) [Compound 73b, (6S*)-7-[4-bromo-3-(trifluoromethyl)benzoyl]-6-methyl-2-(4-{6-methyl-2,6-diazaspiro[3.3]heptan-2-yl}phenyl)-3-oxo-N-{[2-(pyrimidin-4-yl)phenyl]methyl}-5H,6H,8H-imidazo[1,5-a]pyrazine-1-carboxamide] | 0.05 to 0.5 | 
CC1Cn2c(c(C(=O)NCc3ccccc3-c3ccncn3)n(-c3ccc(OCC4(O)CC4)cc3)c2=O)CN1C(=O)c1ccc(Br)c(C(F)(F)F)c1 (single isomer, unassigned) [Compound 74b] |  | < 0.05
CC1Cn2c(c(C(=O)NCc3ccccc3-c3cccnn3)n(-c3ccc(N4CC5(CN(C)C5)C4)cc3)c2=O)CN1C(=O)c1ccc(Br)c(C(F)(F)F)c1 (single isomer, unassigned) [Compound 76a] |  | 0.5 to 5
CC1Cn2c(c(C(=O)NCc3ccccc3-c3cccnn3)n(-c3ccc(N4CC5(CN(C)C5)C4)cc3)c2=O)CN1C(=O)c1ccc(Br)c(C(F)(F)F)c1 (single isomer, unassigned) [Compound 76b] | 0.5 to 5 | 
